Experimental findings from ChEMBL document CHEMBL1131697, “Toxicity and osmoprotective activities of analogues of glycine betaine obtained by solid phase organic synthesis towards Sinorhizobium meliloti” (1999) are described below.

Holding throughout (format): functional
Assay [1] is described as follows: Evaluated for substrate specificity of betaine uptake in salt-stressed Sinorhizobium meliloti. compound to substrate ratio 10:1.
Assay [2] is described as follows: Evaluated for substrate specificity of betaine uptake in salt-stressed Sinorhizobium meliloti. compound to substrate ratio 100:1.
For assay [3], the system named is Sinorhizobium meliloti. In words: Maximal attenuance reached in the stationary phase was reported against Sinorhizobium meliloti 102F34 in Lactate aspartate(LAS) minimal medium (without addition of NaCl).
The test system of assay [4] is Sinorhizobium meliloti. In words: Maximal attenuance reached in the stationary phase was reported against Sinorhizobium meliloti 102F34 in Lactate aspartate(LAS) minimal medium (with addition of NaCl).
Assay [5] concerns Sinorhizobium meliloti. Description: Tested for effect on doubling time of growth of Sinorhizobium meliloti 102F34 in Lactate aspartate(LAS) minimal medium (without addition of NaCl).
Assay [6] has as its system Sinorhizobium meliloti. Description: Tested for effect on doubling time of growth of Sinorhizobium meliloti 102F34 in Lactate aspartate(LAS) minimal medium (with addition of NaCl).
Assay [7] is described as follows: Evaluated for substrate specificity of betaine uptake in salt-stressed Sinorhizobium meliloti. compound to substrate ratio 1:1. Further details: unit not given here.

Regarding `CC(C)[N+](C)(C)CC(=O)O.[Cl-]`, in assay [1], the Betaine uptake (substrate specificity) was 4. The Substrate specificity of betaine uptake in assay [2] stood at 45. For the same molecule, the Dmax stood at 1.8 in assay [3] and 0.9 in assay [4]. The DT in assay [5] was 6.9 h; in assay [6] it was 20 h. Also, in assay [7], the Ratio worked out at 0.
In the case of `C[N+](C)(C)CC(=O)O` [BETAINE], the Betaine uptake (substrate specificity) in assay [1] is 94. The Substrate specificity of betaine uptake in assay [2] came out at 99. Besides, the Dmax in assay [3] is recorded as 2; in assay [4], 2.1. Also, the DT in assay [5] was 5.5 h; in assay [6] it was 7 h. Also, the Ratio in assay [7] came to 80.
As to `CCCC[N+](C)(C)CC(=O)O.[Cl-]`, the Betaine uptake (substrate specificity) in assay [1] stood at 10. Moreover, the Substrate specificity of betaine uptake in assay [2] was 23. Also, the Dmax stood at 1.9 in assay [3] and 0.9 in assay [4]. Moreover, the DT is 6.4 h in assay [5] and 20 h in assay [6]. Besides, the Ratio in assay [7] came to 1.
Turning to `C[S+](C)CC(=O)O.[Cl-]`, the Betaine uptake (substrate specificity) in assay [1] came out at 90. In addition, in assay [2], the Substrate specificity of betaine uptake turned out to be 98. Besides, the Dmax in assay [3] and in assay [4] was 0.5 in each case. For the same molecule, the DT in assay [5] is 35 h; in assay [6] it was 32 h. For the same molecule, the Ratio in assay [7] was 52.
Take `C[N+]1(CC(=O)O)CCOCC1.[Cl-]`: in assay [1], the Betaine uptake (substrate specificity) is 7. Moreover, in assay [2], the Substrate specificity of betaine uptake amounted to 43. Also, the figures for the Dmax in assay [3] and in assay [4] were 1 and 1.9, respectively. The figures for the DT in assay [5] and in assay [6] were 28 h and 13 h, respectively. Moreover, the Ratio in assay [7] was determined as 1.
Turning to `CC[N+](C)(C)CC(=O)O.[Cl-]`, in assay [1], the Betaine uptake (substrate specificity) was 79. Further, the Substrate specificity of betaine uptake in assay [2] was 96. Besides, the results for the Dmax in assay [3] and in assay [4] were 0.7 and 2, respectively. Further, the results for the DT in assay [5] and in assay [6] were 35 h and 11 h, respectively. The Ratio in assay [7] was determined as 35.
As to `C[N+]1(CC(=O)O)CCCC1.[Cl-]`, the Betaine uptake (substrate specificity) in assay [1] worked out at 61. Moreover, the Substrate specificity of betaine uptake in assay [2] turned out to be 95. The Dmax in assay [3] amounted to 0.6; in assay [4] it was 2.1. In addition, the DT was 45 h in assay [5] and 11 h in assay [6]. Further, the Ratio in assay [7] is 20.
On to `CC[N+](CC)(CC)CC(=O)O.[Cl-]`, for which the Betaine uptake (substrate specificity) in assay [1] came to 4. In addition, the Substrate specificity of betaine uptake in assay [2] stood at 27. In addition, the Dmax amounted to 1.8 in assay [3] and 0.9 in assay [4]. Moreover, the results for the DT in assay [5] and in assay [6] were 7.9 h and 18 h, respectively. In assay [7], the Ratio was determined as 0.
As for `CC[N+](C)(CC)CC(=O)O.[Cl-]`, in assay [1], the Betaine uptake (substrate specificity) came to 10. Further, the Substrate specificity of betaine uptake in assay [2] was 57. Further, the Dmax in assay [3] was 1.6; in assay [4], 2. Moreover, the DT in assay [5] was 9 h; in assay [6], 13 h. The Ratio in assay [7] was 4.
